In US20030143729A1 (Synaptic Pharmaceutical Corporation, priority 1992, published 2003):
Read-outs that look alike come from different tables or passages of the source.

Columns and labels:
[1] = target: T1, TAUT (Rattus norvegicus, UniProt P31643); assay: [3H]taurine uptake, full competition curves at cloned TAUT (transient transfection, COS cells); assay type: cell-based
T1 sequence (P31643 1-621): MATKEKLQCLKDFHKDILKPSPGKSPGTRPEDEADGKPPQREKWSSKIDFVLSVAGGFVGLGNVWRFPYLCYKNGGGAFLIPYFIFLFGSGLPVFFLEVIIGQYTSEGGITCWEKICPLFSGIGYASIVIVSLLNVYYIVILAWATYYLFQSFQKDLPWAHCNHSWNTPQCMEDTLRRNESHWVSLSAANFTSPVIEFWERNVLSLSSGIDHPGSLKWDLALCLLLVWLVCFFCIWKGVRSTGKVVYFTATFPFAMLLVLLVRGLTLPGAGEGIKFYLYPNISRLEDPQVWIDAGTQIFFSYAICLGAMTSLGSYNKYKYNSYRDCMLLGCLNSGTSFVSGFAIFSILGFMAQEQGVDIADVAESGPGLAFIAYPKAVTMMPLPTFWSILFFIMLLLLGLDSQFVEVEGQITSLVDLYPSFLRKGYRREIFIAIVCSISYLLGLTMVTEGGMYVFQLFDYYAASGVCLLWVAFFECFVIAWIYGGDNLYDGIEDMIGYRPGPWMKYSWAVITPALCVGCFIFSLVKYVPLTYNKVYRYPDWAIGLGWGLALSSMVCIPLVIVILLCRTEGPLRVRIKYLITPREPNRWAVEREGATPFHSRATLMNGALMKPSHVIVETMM

[2] = target: T2, hBGT-1 (Homo sapiens, UniProt P48065); assay: [3H]GABA uptake, full competition curves at cloned hBGT-1 (transient transfection, COS cells); assay type: cell-based; set-up: expressed in transfected cells; host or cells: COS cells, transient (DEAE-dextran)
T2 sequence (P48065 1-614): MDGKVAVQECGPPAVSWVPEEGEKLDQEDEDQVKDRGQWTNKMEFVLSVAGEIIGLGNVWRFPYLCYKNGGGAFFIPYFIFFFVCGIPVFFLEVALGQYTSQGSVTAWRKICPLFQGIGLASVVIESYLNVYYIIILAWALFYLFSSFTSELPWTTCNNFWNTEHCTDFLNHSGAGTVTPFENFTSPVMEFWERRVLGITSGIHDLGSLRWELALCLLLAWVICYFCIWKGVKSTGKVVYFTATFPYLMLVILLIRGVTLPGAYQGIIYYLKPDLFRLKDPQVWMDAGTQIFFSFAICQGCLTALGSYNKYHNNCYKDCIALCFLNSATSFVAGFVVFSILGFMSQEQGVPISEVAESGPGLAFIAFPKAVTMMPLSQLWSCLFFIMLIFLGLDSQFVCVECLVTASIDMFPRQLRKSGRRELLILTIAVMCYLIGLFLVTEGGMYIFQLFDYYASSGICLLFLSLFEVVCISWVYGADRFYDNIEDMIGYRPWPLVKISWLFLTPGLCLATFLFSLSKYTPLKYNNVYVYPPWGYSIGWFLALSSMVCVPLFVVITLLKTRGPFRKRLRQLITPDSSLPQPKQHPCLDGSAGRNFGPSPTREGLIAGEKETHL

[3] = target: T3, rGAT-2 (Rattus norvegicus, UniProt P31646); assay: [3H]GABA uptake, full competition curves at cloned rGAT-2 (transient transfection, COS cells); assay type: cell-based
T3 construct: randomly primed GAT-2 full-length or GAT-3 truncated or full-length cDNA clones; expressed in transfected cells; host or cells: COS cells, transient, plasmid pEVJB-rB14b
T3 sequence (P31646 1-602): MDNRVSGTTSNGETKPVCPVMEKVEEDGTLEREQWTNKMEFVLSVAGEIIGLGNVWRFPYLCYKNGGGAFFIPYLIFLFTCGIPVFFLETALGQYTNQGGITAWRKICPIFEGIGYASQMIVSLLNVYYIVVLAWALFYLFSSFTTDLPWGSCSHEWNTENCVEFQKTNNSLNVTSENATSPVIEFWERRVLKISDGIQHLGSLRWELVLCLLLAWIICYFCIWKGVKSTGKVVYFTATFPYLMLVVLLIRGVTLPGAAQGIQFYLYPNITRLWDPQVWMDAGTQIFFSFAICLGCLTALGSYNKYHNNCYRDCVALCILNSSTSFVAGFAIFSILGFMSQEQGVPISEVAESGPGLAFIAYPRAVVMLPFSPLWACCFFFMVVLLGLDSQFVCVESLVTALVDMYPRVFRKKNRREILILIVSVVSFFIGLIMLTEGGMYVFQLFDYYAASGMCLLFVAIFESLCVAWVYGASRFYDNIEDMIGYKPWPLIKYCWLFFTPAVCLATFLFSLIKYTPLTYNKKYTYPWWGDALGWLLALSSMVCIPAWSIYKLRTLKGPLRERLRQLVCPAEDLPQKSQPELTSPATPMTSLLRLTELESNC

[4] = system: rat brain aggregates; assay: [3H]GABA uptake by brain aggregates; assay type: cell-based
Method: Briefly, adult rat brains were removed from the skull and the cerebral cortex was dissected and placed in ice-cold HBS. […] The preparation was washed once by centrifugation, then resuspended in HBS.
The filters were washed with ice-cold HBS, punched into vials, and radioactivity determined by scintillation counting. Protein was determined in an aliquot of the aggregate preparation using the BIO-RAD protein assay kit.

[5] = target: rat GAT-1 (Rattus norvegicus, UniProt P23978); conditions: for IC50: read-out: IC50 for inhibition of [3H]GABA uptake, rGAT-1 (Table 8)
Method: Cells grown in 24-well plates were washed 3× with HEPES-buffered saline (HBS, in mM: NaCl, 150; HEPES, 20; CaCl2, 1; glucose, 10; KCl, 5; MgCl2, 1; pH 7.4) and allowed to equilibrate on a 37° C. slide warmer. After 10 minutes the medium was removed and unlabeled drugs in HBS were added (450 μl/well). […] Plates were incubated at 37° C. for 10 minutes, then washed rapidly 3× with ice-cold HBS, using a 24-position plate washer (Brandel, Gaithersburg, Mass.; model PW-12). Cells were solubilized with 0.05% sodium deoxycholate/0.1N NaOH (0.25 ml/well), an aliquot neutralized with 1N HCl, and radioactivity was determined by scintillation counting. Protein was quantified in an aliquot of the solubilized cells using a BIO-RAD protein assay kit, according to the manufacturer's directions.
Lipophilic inhibitors were dissolved in DMSO.
Data Analysis: Competition curves were conducted in duplicate, using 10 concentrations of unlabeled drug.
COS cells grown in 75 cm^2 or 150 cm^2 flasks in DMEM with 10% bovine calf serum, 100 U/ml penicillin G, and 100 μg/ml streptomycin sulfate (37° C., 5% CO2) were transfected using DEAE-dextran. On the day following transfection the cells were split into 24-well assay plates coated with poly-D-lysine (10 μg/ml), and transport was measured 24 hours later.
After 10 minutes the medium was removed and unlabeled drugs in HBS were added (450 μl/well). […] Plates were incubated at 37° C. for 10 minutes, then washed rapidly 3× with ice-cold HBS, using a 24-position plate washer (Brandel, Gaithersburg, Mass.; model PW-12). Cells were solubilized with 0.05% sodium deoxycholate/0.1N NaOH (0.25 ml/well), an aliquot neutralized with 1N HCl, and radioactivity was determined by scintillation counting. Protein was quantified in an aliquot of the solubilized cells using a BIO-RAD protein assay kit, according to the manufacturer's directions.

[6] = target: T4, GAT-2 (Rattus norvegicus, UniProt P31646); assay: [3H]GABA uptake by COS cells transfected with GAT-2 (rB14b); assay type: cell-based
T4 construct: randomly primed GAT-2 full-length or GAT-3 truncated or full-length cDNA clones; expressed in transfected cells; host or cells: COS cells, transient, plasmid pEVJB-rB14b
T4 sequence (P31646 1-602): T3 sequence (P31646 1-602)

[7] = full competition curves, 50 nM [3H]taurine, read-out: IC50 for inhibition of [3H]taurine uptake, TAUT (Table 8)
[8] = Rattus norvegicus, read-out: IC50 for inhibition of [3H]GABA uptake, rat brain aggregates, control
[9] = read-out: IC50 for inhibition of [3H]GABA uptake, hBGT-1 (Table 8), full competition curves, 50 nM [3H]GABA
[10] = read-out: IC50 for inhibition of [3H]GABA uptake, rGAT-2 (Table 8), full competition curves, 50 nM [3H]GABA
[11] = read-out: IC50 for inhibition of [3H]GABA uptake, rat brain aggregates, control, absence of NNC-711
[12] = read-out: IC50 for inhibition of [3H]GABA uptake, rat brain aggregates, with NNC-711, in the presence of 10 μM NNC-711
[13] = COS, read-out: % Inhibition of [3H]GABA uptake, GAT-2

Compound | IC50 [1, 7] [µM] | IC50 [2] [µM] | IC50 [3] [µM] | IC50 [4, 8] [µM] | IC50 [2, 9] [µM] | IC50 [3, 10] [µM] | IC50 [4, 12] [µM] | inhibition at 100 µM [6, 13] [%] | further results
NCCS(=O)O [hypotaurine] | 47 | 536 ± 41 | 52 ± 6 | 692 ± 100 | – | – | – | – | –
N=C(N)NCCS(=O)(=O)O [GES, guanidinoethanesulfonic acid] | 129 | – | – | – | 4800 | 696 ± 110 | 410 ± 100 | – | IC50 ([5]; full competition curves, 50 nM [3H]GABA): 4840 µM; IC50 [4, 11]: 1340 µM
O=C(O)C1=CCCN(CCON=C(c2ccccc2)c2ccccc2)C1 [NNC-711] | 207 | – | – | – | 3570 | 729 ± 319 | 323 ± 70 | – | selectivity for GAT-1 [5]: 1,000 fold; IC50 [5]: 0.38 µM; [3H]GABA uptake that persists, rat brain aggregates ([4]; NNC-711 at 10 μM): 15±2%; IC50 ([4]; read-out: IC50 for GABA uptake, rat brain aggregates): 0.09 µM
hydroxynipecotic acid [OH-nipecotic] | 4810 | – | – | – | 3840 | 567 ± 50 | 69 ± 10 | – | % Inhibition of [3H]GABA uptake, GAT-2 ([6]; inhibitor 10 μM, 50 nM [3H]GABA, 10 minutes, 37° C.): 9 ± 7 (3) %; IC50 [5]: 44 ± 8 µM; IC50 [4, 11]: 10 ± 1 µM
NCCCC(=O)O [GABA, gamma-aminobutyric acid] | 720 ± 170 | – | 17 ± 6 | – | – | – | – | – | VMAX of GABA transport, COS/rB14b (GAT-2) ([6]; various concentrations of [3H]GABA, 30 seconds): 2.5±1.2 nmoles/mg protein
O=C(O)C1=CCCNC1 [guvacine] | 1030 | 1420 | 228 ± 38 | 10 ± 2 | – | – | – | – | inhibition at 10 µM [6, 13]: 13 ± 1%
NCCS(=O)(=O)O [taurine, 2-aminoethanesulfonic acid] | 48 ± 11 | 13200 | 1270 | 67000 | – | – | – | – | –
N[C@@H]1CCC[C@H](C(=O)O)C1 (relative stereo) [ACHC, cis-3-aminocyclohexanecarboxylic acid] | – | 1070 | 25900 | 31 | – | – | – | 3 ± 3 | IC50 [1]: 9230 µM
NCCC(=O)O [β-alanine] | 176 | 1100 | 66 ± 9 | – | – | – | – | 86 ± 1 | IC50 ([4]; Rattus norvegicus, read-out: IC50 for GABA transport, brain aggregates): 3000 µM; IC50 ([4]; Rattus norvegicus, read-out: IC50 for inhibition of [3H]GABA uptake, rat brain aggregates, control, absence of NNC-711): 2930 µM; IC50 ([4]; Rattus norvegicus, read-out: IC50 for inhibition of [3H]GABA uptake, rat brain aggregates, with NNC-711, in the presence of 10 μM NNC-711): 33 µM
NCC[C@H](N)C(=O)O [L-DABA, L-(2,4)diaminobutyric acid] | – | 528 ± 62 | 300 ± 51 | 22 ± 3 | – | – | – | 43 ± 8 | IC50 [1]: 41800 µM
